The results in this text go back to patent US20200263213A1, “METHODS FOR INCREASING THE TOLERANCE OF MICROBIAL CELLS TOWARDS ANTHRANILIC ACID BY LIMITING THE AMOUNT OF AMMONIA IN THE CULTURE MEDIUM” (priority 2017, published 2020).

The test system of test [1] is modified C. glutamicum production strain. Particulars: for decrease of OTR signal after addition: 292 mmol salt (70 mL stock solution) added after 64 h, Na-oAB added before (4 x 20 mL of 500 g/L); for final dry weight concentration: after a cultivation time of 91 hours, salt added after 64 h in the presence of oAB.
In test [2] the test system is modified C. glutaomicum production strain. Nature of the test: Evaluation of the maximum tolerable oAB concentration, batch cultivation in 1 L bioreactor (Example 1). It counts as cell-based, Corynebacterium glutaomicum. The protocol: FIG. 1: Evaluation of the maximum tolerable oAB concentration during batch cultivation in a 1 L lab-scale bioreactor with a modified C. glutaomicum production strain.
The maximum tolerable oAB concentration in the presence of sodium ions in the medium was tested with a modified C. glutaomicum production strain. This strain was derived from Corynebacterium glutaomicum ATCC 13032 by evolutionary engineering in order to increase its resistance against oAB. This strain was then genetically modified to make it capable of oAB-production and comprised the following modifications. The incorporated modifications have the effect of reduced expression of the trpD gene, encoding anthranilate phosphoribosyl transferase, knock out of gene ppc, encoding PEP Carboxylase, constitutive overexpression of heterologous aroG^D146N and trpEG^540F genes from E. coli, encoding feedback resistant DAHP synthase and anthranilate synthase, respectively, constitutive overexpression of the gene aroL from E. coli, encoding shikimate kinase.
Glucose was added as stock solution after 40 h, 48 h, 63 h, 65 and 71.5 h to prevent a glucose limitation.

A further test has as its system C. glutomicum ATCC 13032. Nature of the test: Metabolic activity after NH4-oAB and Na-oAB addition, batch cultivation in 1 L bioreactors (Example 3, FIG. 3). It counts as cell-based. As to conditions: for biomass accumulation after addition: 40 mL of 500 g/L oAB stock solution added after 6.4 h and 23.6 h, FIG. 3. The text has this:
From this it follows that the toxicity of oAB on C. glutomicum ATCC 13032 in presence of high sodium concentrations is reduced as compared to the toxicity in presence of high ammonium concentrations.

The subject of test [3] is C. glutomicum strain derived from ATCC 13032 by evolutionary engineering. Nature of the test: Metabolic activity after NH4-oAB and Na-oAB addition, batch cultivation in 1 L bioreactors (Example 2). It counts as cell-based, Corynebacterium glutomicum. Particulars: 40 mL of 500 g/L oAB stock solution added at 7 h and 24 h; FIG. 2. The protocol:
Both bioreactors: addition of 36 g/L glucose (added as stock solution) after 7.5 h and 24.5 h to prevent a glucose limitation.
A C. glutomicum strain derived from ATCC 13032 was used to compare the metabolic activity after NH4-oAB and Na-oAB addition during the cultivation. This strain was derived from Corynebacterium glutomicum ATCC 13032 by evolutionary engineering in order to increase its resistance against oAB. It was not further genetically modified. Thus it was not capable of oAB-production.

Where only a bound is given, the exact number is not on record here.

As to `[Cl-].[Na+]` [NaCl], in test [1], the “decrease of OTR signal after addition” value is on record as “no effect” and the “final dry weight concentration” value is on record as 7.8 g/L.
Turning to `Cl.N` [NH4Cl], in test [1], the “decrease of OTR signal after addition” value is “about 20%” and the “final dry weight concentration” value worked out at 6.8 g/L.
On to `Nc1ccccc1C(=O)O` [oAB, 2-aminobenzoic acid], for which, in test [2] (oAB added stepwise as sodium salt (dissolved with NaOH at pH 7), pH 7 controlled with NH4OH, 30° C.), the “oAB concentration at which an increase in biomass concentration was still observed” value is on record as 80 g/L. Also, the “oAB concentration resulting in a decrease of the metabolic activity (declining OTR signal) and no further increase in biomass” value in test [2] (oAB increased from 80 g/L after 71 h, added as sodium salt (dissolved with NaOH at pH 7)) is 100 g/L.
Turning to `Nc1ccccc1C(=O)[O-].[Na+]` [Na-oAB], the “biomass accumulation after addition” value in the test on C. glutomicum ATCC 13032 is listed as “biomass accumulation continued”. Further, in test [3], the “OTR signal after addition” value is listed as “continued to increase” and the “biomass concentration after addition” value was “continued to increase”.
In the case of `N.Nc1ccccc1C(=O)O` [NH4-oAB], the “biomass accumulation after addition” value in the test on C. glutomicum ATCC 13032 is listed as “growth inhibition after 24 h”. In addition, in the test with C. glutomicum ATCC 13032 (according to FIG. 3), the “o-aminobenzoate concentration at which cell growth (dry weight) stops” value is listed as > 50 g/L. In addition, the “o-aminobenzoate concentration at which the metabolic activity of bacterial cells (OTR) is limited” value with C. glutomicum ATCC 13032 (according to FIG. 3, concentration not including the mass of the cation) is on record as “more than 25 g/L”. Moreover, in test [3], the “OTR signal after addition” value is given as “constant OTR signal” and the “biomass concentration after addition” value is “reduced biomass accumulation”.
